Test results: PMC12477777, “Human exposure to green spaces and monoterpenes: discovery and use of α-pinene metabolites as biomarkers” (Environment international, 2025)

How the values were obtained:
[1] = Kinetic modeling of urinary aPM with a pseudo one-compartment nonlinear mixed-effects model after α-pinene inhalation; format: in vivo, human; settings: for F (%), fraction of metabolite generated from absorbed α-pinene: human urine after 10 min α-pinene inhalation, F normalized to the sum of 22 detected metabolites; for Elimination t1/2 / Ka, first-order generation constant / Ke, first-order elimination rate constant: human urine after α-pinene inhalation, pseudo one-compartment model
Text: In this equation, i represents the participant index, j the urine sample index, C the creatinine-normalized peak response, and t the sample collection time ( h).Ka denotes the first-order generation constant ( h^−1 ), and Ke denotes the first-order elimination rate constant h^−1 . F indicates the fraction of specific aPM relative to absorbed α-pinene. The variables D and V refer to the absorbed α-pinene amount and the distribution volume, respectively. Because input data were derived from relative quantification, absolute values of D , V , and F were not available. For simplicity, D and V were fixed at 100 and 1, respectively, and F was normalized relative to the sum of all detected aPM. The error term ε accounts for residual variation.

[2] = aPM in mouse urine after i.p. injection of (+)-α-pinene or (−)-α-pinene; format: in vivo, mice (C57BL/6); settings: for (1R)-(+)-α-Pinene (Average), proportion of aPM in mouse urine / (1S)-(−)-α-Pinene (Average), proportion of aPM in mouse urine: mouse urine collected overnight, 50 mg/kg; for (1R)-(+)-α-Pinene (Average), proportion of aPM in mouse urine: 50 mg/kg i.p. (+)-α-pinene; for (1S)-(−)-α-Pinene (Average), proportion of aPM in mouse urine: 50 mg/kg i.p. (−)-α-pinene; for R/(R+S): mouse urine, enantiomer specificity; for Detection in mouse urine: after exposure to either α-pinene enantiomer
Procedure: Mouse urine was collected after exposures to either (+) or (−) α-pinene to distinguish between metabolites of different enantiomers of α-pinene. Adult male mice (C57BL/6) were intraperitoneally administered with 50 mg/kg body weight of (+)-α-pinene or (−)-α-pinene dissolved in 100 μl sterile saline with 1 % Tween 80.

[3] = Relative quantification of urinary aPM (UPLC-QTOF-MS, creatinine-normalized) after controlled α-pinene inhalation; format: in vivo, human; settings: for Frequency of occurrence (percentage of samples with analyte detected) / Maximum response (highest peak response across all urine samples) / Observed Tmax: human urine after α-pinene inhalation; for Proportion (observed) after α-pinene inhalation: share of total response of 22 aPM, averaged over post-exposure samples
Procedure: (§1) Briefly, for controlled inhalation experiments, eight healthy volunteers were exposed to α-pinene in a custom-built exposure chamber via inhalation from a 15 ml conical tube, containing approximately 100 μl α-pinene, for a duration of 10 min. Urine samples were collected before exposure (0 h) and 0.5, 1, 2, 3, and 4 h after exposure. […] Urine samples were collected both before (0 h) or 4 h after exposure. After collection, the urine samples were centrifuged and stored at −80 °C before analysis. […] Demographic information, including sex, age and race, can be found in Table S1.
(§2) Briefly, after 1:10 dilution, urine samples were separated using an Acquity I-Class UPLC system with an Acquity Premier CSH C18 UPLC column (Waters, MA) with a gradient comprising 0.1 % formic acid in water as the solvent A and 0.1 % formic acid in acetonitrile as the solvent B. Mass Spectrometry Elevated Energy (MS^E) data were collected using a Waters Synapt XS MS (Waters, MA) with an ESI ion source operated in the negative mode. Subsequent analyses of raw files were performed using UNIFI 1.9 and Progenesis QI 3.0 (both from Waters, MA). To validate LC-MS performance, one quality control (QC) sample, prepared by pooling equal amount of each urine sample, was injected after every ten urine sample injections.
(§3) Relative quantification of aPM was performed based on the peak responses normalized to urinary creatinine levels. Urinary creatinine levels were measured using an Ace Axcel Clinical Chemistry System with ACE Creatinine Reagent from Alfa Wassermann (West Caldwell, NJ). Statistical analyses, including ANOVA and Student’s t-tests, were conducted using SAS 9.4 (SAS Institute, NC) to explore differences in aPM across various time points. […] A threshold for statistical significance was defined as p < 0.05.

[4] = Urinary aPM after 4 h greenness (forest) exposure; format: in vivo, human; set-up: Maximum response: unit not given here; settings: for Frequency of occurrence / Maximum response: human urine, greenness exposure; for Proportion (observed) after greenness exposure: share of total aPM response
Procedure: as §1, §2, §3

| Molecule | F (%), fraction of metabolite generated from absorbed α-pinene [1] [%] | Elimination t1/2 [1] [h] | Ka, first-order generation constant [1] [h⁻¹] | Ke, first-order elimination rate constant [1] [h⁻¹] | (1R)-(+)-α-Pinene (Average), proportion of aPM in mouse urine [2] [%] | (1S)-(−)-α-Pinene (Average), proportion of aPM in mouse urine [2] [%] | R/(R+S) [2] [%] | Frequency of occurrence (percentage of samples with analyte detected) [3] [%] | Maximum response (highest peak response across all urine samples) [3] | Observed Tmax [3] [h] | Proportion (observed) after α-pinene inhalation [3] [%] | Frequency of occurrence [4] [%] | Detection in mouse urine [2] | Maximum response [4] | Proportion (observed) after greenness exposure [4] [%] |
| --- | --- | --- | --- | --- | --- | --- | --- | --- | --- | --- | --- | --- | --- | --- | --- |
| CC1(C)C2CC=C(C(=O)OC3OC(C(=O)O)C(O)C(O)C3O)C1C2 (single isomer, unassigned) [aPM3a, Myrtenic acid-GlcA] | 2.92 ± 0.94 | 0.93 ± 0.27 | 1.80 ± 0.67 | 0.75 ± 0.22 | 0.0 | 10.0 | 0 | 93.8 | 50629 | 1 | 3.2 | 0.0 | – | – | – |
| CC1(C)C2CC=C(C(=O)OC3OC(C(=O)O)C(O)C(O)C3O)C1C2 (single isomer, unassigned) [aPM3b, Myrtenic acid-GlcA] | – | 0.61 ± 0.13 | 1.98 ± 0.60 | 1.13 ± 0.24 | 1.6 | 2.7 | 37.5 | 100.0 | 352366 | 1 | – | 87.5 | present in murine samples | 2516 | 17.7 |
| CC1(C)C2CCC(C(=O)OC3OC(C(=O)O)C(O)C(O)C3O)C1C2 (single isomer, unassigned) [aPM4a, Dihydromyrtenic acid-GlcA] | 3.19 ± 1.11 | 0.71 ± 0.22 | 2.12 ± 0.87 | 0.98 ± 0.30 | 0.0 | 5.0 | 0.0 | 89.6 | 72991 | 1 | 2.4 | 6.3 | – | 53 | 0.0 |
| CC1(C)C2CCC(C(=O)OC3OC(C(=O)O)C(O)C(O)C3O)C1C2 (single isomer, unassigned) [aPM4b, Dihydromyrtenic acid-GlcA] | 1.47 ± 0.63 | 0.79 ± 0.26 | 1.34 ± 0.47 | 0.87 ± 0.28 | 0.0 | 4.2 | 0.0 | 81.3 | 14109 | 1 | 1.2 | 0.0 | – | – | – |
| CC1(C)C2CCC(C(=O)OC3OC(C(=O)O)C(O)C(O)C3O)C1C2 (single isomer, unassigned) [aPM4c, Dihydromyrtenic acid-GlcA] | 0.26 ± 0.08 | 1.51 ± 0.54 | 1.65 ± 0.67 | 0.46 ± 0.16 | 0.0 | 0.1 | 0.0 | 89.6 | 5156 | 1 | 0.5 | 0.0 | – | – | – |
| CC1(C)C2CCC(C(=O)OC3OC(C(=O)O)C(O)C(O)C3O)C1C2 (single isomer, unassigned) [aPM4d, Dihydromyrtenic acid-GlcA] | 13.03 ± 5.57 | 1.01 ± 0.40 | 0.73 ± 0.29 | 0.68 ± 0.27 | 0.0 | 0.2 | 0.0 | 97.9 | 183468 | 1 | – | 68.8 | present in murine samples | 7375 | 9.4 |
| CC1(C)C2CCC(C(=O)OC3OC(C(=O)O)C(O)C(O)C3O)C1C2 (single isomer, unassigned) [aPM4e, Dihydromyrtenic acid-GlcA] | 18.14 ± 6.52 | 0.99 ± 0.33 | 1.26 ± 0.50 | 0.70 ± 0.24 | 0.1 | 0.2 | 24.1 | 95.8 | 241782 | 1 | – | 93.8 | present in murine samples | 27114 | 67.8 |
| CC1(C)C2CC1C(OC1OC(C(=O)O)C(O)C(O)C1O)C=C2C(=O)O (single isomer, unassigned) [aPM5a, Myrtenic acid-4-O-GlcA] | 0.25 ± 0.09 | 1.00 ± 0.38 | 1.64 ± 0.77 | 0.70 ± 0.27 | 0.0 | 0.1 | 0 | 79.2 | 4787 | 1 | 0.3 | 0.0 | – | – | – |
| CC1(C)C2CC1C(OC1OC(C(=O)O)C(O)C(O)C1O)C=C2C(=O)O (single isomer, unassigned) [aPM5b, Myrtenic acid-4-O-GlcA] | 1.46 ± 0.57 | 0.87 ± 0.34 | 1.74 ± 0.84 | 0.80 ± 0.31 | 0.0 | 0.0 | – | 91.7 | 22121 | 1 | 1.6 | 6.3 | – | 89 | 0.0 |
| α-Pinene-O-GlcA [aPM2a] | 0.51 ± 0.12 | 0.56 ± 0.08 | – | 1.23 ± 0.17 | – | – | – | – | – | 0.5 | – | – | – | – | 0.9 |
